Measured values published in patent US5120835A, “Saccharide derivatives of protocatechualdehyde” (Kureha Chemical Industry Co., Ltd., priority 1989, dated 1992).
Where two headings read alike, the source gives them in different places.

What was measured:
granuloma growth = assay: Granuloma growth inhibiting effect (paper disk implanted subcutaneously in rats); format: in vivo, male Donryu rats; conditions: oral, 10 days; for Granuloma Dry weight (mean): control 131.9 mg
Method: Effects of inhibiting granuloma growth were investigated by the method proposed by Fujimura et al. [Oyo Yakuri, 19 (3), 329 (1980)], using five-week old male Donryu rats. As paper disks, filter papers measuring 13 mm.0. and 28 mg and soaked in […] CMC solution (containing 0.1 mg/ml of 1 million unit dihydroxystreptomycin and penicillin, respectively) were used. A paper disk was implanted subcutaneously in the back of the rat under anesthesia. The test drugs dispersed in 0.3% CMC solutions were administered orally for 10 days; then, on the 11th day the granulomas were removed and their weights were measured. To the control group were administered the original 0.3% CMC solution containing no test drug.

[1] = Acute toxicity in mice (LD50, Litchfield-Wilcoxon method); conditions: mouse, in vivo, Jcl:ICR female mice, observed for 7 days
Method: The prescribed amounts of the test drugs dispersed in 0.3% CMC aqueous solution at a rate of 20 mg/ml for oral administration and the test drugs dissolved in 10% ethanol isotonic sodium chloride solution as a rate of 200 mg/ml for intraperitoneal administration were applied using gastric probes and syringes, respectively.

[2] = Toxicity compared in words; format: in vivo; conditions: from LD50 of reference against LD50 of Table 1
male mice = conditions: DRUGS IN JAPAN (ETHICAL DRUGS), 9th Edition (1985), p.105; cited from earlier work
male rats = conditions: DRUGS IN JAPAN (ETHICAL DRUGS), 9th Edition (1985), p.105; cited from earlier work
[3] = in vivo; cited from earlier work
leukocytic migration = conditions: in vitro, low concentration level; cited from earlier work
[4] = system: blood platelet agglutination; conditions: in vitro, low concentration level; cited from earlier work
[5] = ip, intraperitoneal, dissolved in 10% ethanol isotonic sodium chloride solution, read-out: LD50, Intraperitoneal Administration
[6] = oral, dispersed in 0.3% CMC aqueous solution, read-out: LD50, Oral Administration

| SMILES | Granuloma Inhibition rate (granuloma growth; 10 mg/kg/day) | Granuloma Dry weight (mean) (granuloma growth; 10 mg/kg/day) | Granuloma Inhibition rate (granuloma growth; 50 mg/kg/day) | Granuloma Dry weight (mean) (granuloma growth; 50 mg/kg/day) | LD50 at 168 h [1, 5] | LD50 at 168 h [1, 6] | Toxicity compared with PAL and the compounds of the present invention (in words) [2] | LD50 value (male mice) | LD50 value (male rats) | Granuloma Inhibition rate (granuloma growth; 3 mg/kg/day) | Granuloma Dry weight (mean) (granuloma growth; 3 mg/kg/day) | Metabolic rate (in words) [3] | Inhibiting leukocytic migration (in words) (leukocytic migration) | Inhibiting blood platelet agglutination (in words) [4] |
| --- | --- | --- | --- | --- | --- | --- | --- | --- | --- | --- | --- | --- | --- | --- |
| CO[C@H]1O[C@@H]2COC(c3ccc(OC(=O)c4ccccc4)c(OC(=O)c4ccccc4)c3)O[C@H]2[C@H](O)[C@H]1O (stereo partly drawn) [Ia1, Methyl-4,6-O-(3',4'-dibenzoyloxybenzylidene)-α-D-glucopyranoside] | 29.8% | 92.6 mg | 43.7% | 74.3 mg | 1900 mg/kg | > 4000 mg/kg |  |  |  |  |  |  |  |  |
| CO[C@H]1O[C@@H]2COC(c3ccc(O)c(O)c3)O[C@H]2[C@H](O)[C@H]1O (stereo partly drawn) [Ib1, Methyl-4,6-O-(3',4'-dihydroxybenzylidene)-α-D-glucopyranoside] | 30.7% | 91.4 mg | 50.0% | 66.0 mg | > 3000 mg/kg | > 4000 mg/kg |  |  |  |  |  |  |  |  |
| COc1ccc2c(c1)c(CC(=O)O)c(C)n2C(=O)c1ccc(Cl)cc1 [Indomethacin, indomethacin] |  |  |  |  |  |  | more toxic than both PAL and the compounds of the present invention | 30.2 mg/kg | 29 mg/kg | 45.9% | 71.3 mg |  |  |  |
| O=Cc1ccc(O)c(O)c1 [PAL, protocatechualdehyde] |  |  | 34.2% | 86.8 mg |  |  |  |  |  |  |  | higher metabolic rate | shows a suitable effect | shows a suitable effect |
